Data set [1] relates to Pyrenophora teres. Nature of the data set: Example D: in vivo preventive test on Pyrenophora teres (net blotch on barley). To be noted: 500 ppm, preventive spray on barley plants, contamination after 24 hours, grading 14 days after contamination vs control plants. How it is done:
In Vivo Preventive Test on Pyrenophora teres (Net Blotch on Barley)
(§1) The active ingredients tested are prepared by homogenization in a mixture of acetone/tween/DMSO, and then diluted with water to obtain the desired active material concentration.
Barley plants (“Plaisant” variety), sown in starter cups on a 50/50 peat soil-pozzolana substrate and grown at 22° C., are treated at the 1-leaf stage (10 cm height) by spraying with the active ingredient prepared as described above. Plants, used as controls, are treated with the mixture of acetone/tween/DMSO/water not containing the active material.
After 24 hours, the plants are contaminated by spraying the leaves with an aqueous suspension of Pyrenophora teres spores (12 000 spores per ml). The spores are collected from a 12-day-old culture. The contaminated barley plants are incubated for 48 hours at 20° C. and at 100% relative humidity, and then for 12 days at 20° C. at 70-80% relative humidity.
Grading (% of efficacy) is carried out 14 days after the contamination, in comparison with the control plants.
(§2) Under these conditions, good (at least 70%) or total protection is observed at a dose of 500 ppm with the following compounds: […]

In data set [2] the test system is Phytophthora infestans. Nature of the data set: whole plant or invertebrate. It is filed as in vivo. To be noted: in Solanum lycopersicum, 120 h, read-out: % efficacy.
The conditions of data set [3]: pH 2.7, LogP, HPLC on reversed phase columns, pH 2.7, 0.1% formic acid in water / acetonitrile gradient.
Description: Measurement of log P values was performed according EEC directive 79/831 Annex V.A8 by HPLC (High Performance Liquid Chromatography) on reversed phase columns with the following method:
Measurement of LC-MS was done at pH 2.7 with 0.1% formic acid in water and with acetonitrile (contains 0.1% formic acid) as eluent with a linear gradient from 10% acetonitrile to 95% acetonitrile.
Calibration was done with not branched alkan2-ones (with 3 to 16 carbon atoms) with known log P-values (measurement of log P values using retention times with linear interpolation between successive alkanones). lambda-maX-values were determined using UV-spectra from 200 nm to 400 nm and the peak values of the chromatographic signals.
In data set [4] the test system is Plasmopara viticola. Nature of the data set: Example I: in vivo preventive test on Plasmopara viticola (grapevine). To be noted: 144 h, 10 ppm of active ingredient, preventive spray on young plants, evaluated 6 days after inoculation, read-out: Eff. %. As to the method:
In Vivo Preventive Test on Plasmopara viticola (Grapevine)
To produce a suitable preparation of active compound, 1 part by weight of active compound is mixed with the stated amounts of solvent and emulsifier, and the concentrate is diluted with water to the desired concentration.
To test for preventive activity, young plants are sprayed with the preparation of active compound at the stated rate of application. After the spray coating has dried on, the plants are inoculated with an aqueous spore suspension of Plasmopara viticola and then remain for 1 day in an incubation cabinet at approximately 20° C. and a relative atmospheric humidity of 100%. The plant is subsequently placed for 4 days in a greenhouse at approximately 21° C. and a relative atmospheric humidity of approximately 90%. The plants are then misted and placed for 1 day in an incubation cabinet.
The test is evaluated 6 days after the inoculation. 0% means an efficacy which corresponds to that of the untreated control, while an efficacy of 100% means that no disease is observed.

Data set [5] deals with Uromyces appendiculatus. The data set is described as follows: Example C: in vivo preventive test on Uromyces appendiculatus (bean rust). To be noted: 500 ppm, preventive spray on bean plants, contamination after 24 hours, grading 11 days after contamination vs control plants. How it is done:
In Vivo Preventive Test on Uromyces appendiculatus (Bean Rust)
as §1
Bean plants (“Saxa” variety), sown in starter cups on a 50/50 peat soil-pozzolana substrate and grown at 24° C., are treated at the 2-leaf stage (9 cm height) by spraying with the active ingredient prepared as described above. Plants, used as controls, are treated with the mixture of acetone/tween/DMSO/water not containing the active material.
After 24 hours, the plants are contaminated by spraying the leaves with an aqueous suspension of Uromyces appendiculatus spores (150 000 spores per ml). The spores are collected from infected plants and are suspended in water containing 2.5 ml/l of Tween 80 at 10%. The contaminated bean plants are incubated for 24 hours at 20° C. and at 100% relative humidity, and then for 10 days at 20° C. and at 70-80% relative humidity.
Grading (% of efficacy) is carried out 11 days after the contamination, in comparison with the control plants.
as §2

Data set [6] deals with Puccinia recondita. Nature of the data set: Example E: in vivo preventive test on Puccinia recondita (brown rust on wheat). To be noted: 500 ppm, preventive spray on wheat plants, contamination after 24 hours, grading 12 days after contamination vs control plants. How it is done: In Vivo Preventive Test on Puccinia recondita (Brown Rust on Wheat)
as §1
Wheat plants (“Scipion” variety), sown in starter cups on a 50/50 peat soil-pozzolana substrate and grown at 22° C., are treated at the 1-leaf stage (10 cm height) by spraying with the active ingredient prepared as described above. Plants, used as controls, are treated with the mixture of acetone/tween/DMSO/water not containing the active material.
After 24 hours, the plants are contaminated by spraying the leaves with an aqueous suspension of Puccinia recondita spores (100 000 spores per ml). The spores are collected from an infected plant and are suspended in water containing 2.5 ml/l of Tween 80 at 10%. The contaminated wheat plants are incubated for 24 hours at 20° C. and at 100% relative humidity, and then for 10 days at 20° C. and at 70-80% relative humidity.
Grading (% of efficacy) is carried out 12 days after the contamination, in comparison with the control plants.
as §2

For `COc1cccc(C(=NOCc2cccc(NC(=O)COc3ccccc3)n2)c2nc(=O)o[nH]2)c1` [Example 45], in data set [1], the “% efficacy” value is 71%. Also, in data set [2], the pest or weed control at 500 ppm stood at 88%. In addition, the chromatographic logP in data set [3] worked out at 3.17.
In the case of `COc1ccc(CC(=O)Nc2cccc(CON=C(c3ccccc3)c3nc(=O)on3C)n2)cc1` [Example 16], the pest or weed control at 10 ppm in data set [4] was 94%. For the same compound, the “% efficacy” value in data set [5] was 81%; in data set [6], 89%. The pest or weed control at 500 ppm in data set [2] came to 100%. This compound also returned a chromatographic logP in data set [3] of 2.92.

Broadly, the chromatographic logP is lipophilicity estimated from chromatographic retention. Low values mean a more hydrophilic compound, high ones a more lipophilic compound.

These data come from patent publication US9556158B2, “Fungicidal 3-[(pyridin-2-ylmethoxyimino)(phenyl)methyl]-2-substituted-1,2,4-oxadiazol-5(2H)-one derivatives” (BAYER INTELLECTUAL PROPERTY GMBH, priority 2011, dated 2017).
